In patent US20220370454A1, “METHODS FOR TREATING CENTRAL NERVOUS SYSTEM DISORDERS WITH MUSCARINIC RECEPTOR ACTIVATION AND ANTIPSYCHOTICS” (Karuna Therapeutics, Inc., priority 2021, published 2022):

What was measured:
Adult male C57BL/6J mice = assay: Conditioned avoidance response (CAR) assay, Example 1; assay type: in vivo; settings: for Effect on conditioned avoidance responding (dose-response, FIG. 1): each compound alone, compiled independent studies; for Avoidance responding versus vehicle-vehicle control, drug alone: subthreshold doses alone (data not shown); for Blockade of xanomeline's effects in CAR by muscarinic antagonist: maximally active dose of xanomeline, FIG. 11, N=14
From the text: In the CAR assay, mice were first trained to avoid a foot shock (i.e., crossing from one side of a shuttle box to another within 10 secs) to a performance criterion of ≥85% avoidance responses. A repeated-measures, counterbalanced design was used. Two experiments evaluated the effects of blocking central (with scopolamine) vs. peripheral (with N-methylscopolamine) muscarinic receptors. […] “Subthreshold” of “sub-efficacious” refers to doses that are lower than the therapeutically effective amount for monotherapy but which could be effective in synergy with the antipsychotics tested.
Referring to FIG. 1, the compiled data over independent studies with each compound were analyzed separately via one-way repeated-measures ANOVA. A Dunnett post-hoc test was performed and that dose group significance was only assessed against Vehicle.
Post hoc analysis vs. xanomeline alone (*) and vs. comparator dose alone (#).

[1] = system: MK-801-induced locomotor activity in C57BL/6J mice; assay: MK-801-induced locomotor activity (LMA) assay; assay type: in vivo
From the text: In the CAR assay, mice were first trained to avoid a foot shock (i.e., crossing from one side of a shuttle box to another within 10 secs) to a performance criterion of ≥85% avoidance responses. A repeated-measures, counterbalanced design was used. Two experiments evaluated the effects of blocking central (with scopolamine) vs. peripheral (with N-methylscopolamine) muscarinic receptors. Additional experiments evaluated augmentation and synergy by combining dosing subthreshold doses of xanomeline plus risperidone or aripiprazole. “Subthreshold” of “sub-efficacious” refers to doses that are lower than the therapeutically effective amount for monotherapy but which could be effective in synergy with the antipsychotics tested.
In the LMA assay, varying doses of xanomeline and risperidone were co-formulated. […] After the experiment, plasma and brain tissue were collected to determine drug exposure.
Data are mean (±SEM) total distance traveled.

[2] = Brain and plasma drug exposure collected after the LMA study; assay type: in vivo, mice
From the text: After the experiment, plasma and brain tissue were collected to determine drug exposure.

male C57BL/6J mice = assay: Conditioned avoidance response (CAR) assay, Example 2 (enhanced aripiprazole formulation, two sequential injections); settings: for Average avoidance response percentages, A alone: Example 2
Protocol: Also, in Example 2, compounds were delivered as two sequential subcutaneous injections rather than one.
In Example 2, a 5% vehicle solution was prepared from 1.0 mL Tween-80 dissolved in 19.0 mL saline. […] The average pH was 3.8 and compound was dosed at a 10 mL/kg bodyweight volume. Drug solutions were prepared fresh on each dosing day before testing. All solutions were mixed or vortexed thoroughly before injections.
Subjects (N=25) were male C57BL/6J, purchased from Jackson Labs, and successfully trained for CAR. Mice were first tested in an aripiprazole dose response study comprised of VEH, 0.3, 1, 3, and 10 mg/kg (data not shown). Dose order was randomly assigned for each mouse. Mice were returned to their home cages for 30 minutes following injection to allow the drug to take effect before testing began.
To match the formulation procedure from Example 1 while maintaining an appropriate volume, a relatively high concentration aripiprazole stock was first made and then diluted to the target concentrations for dosing. A 5% Tween-80 solution was prepared from 2.0 mL Tween-80 dissolved in 38.0 mL of saline. A 3.0 mg/kg aripiprazole solution as a stock was prepared from 3.0 mg aripiprazole dissolved in 5.0 mL 5% Tween-80, giving a concentration of 0.6 mg/mL. At a dosing volume of 5 mL/kg, equaling 3.0 mg/kg. […] The average pH was 6.2. For 0.3 mg/kg aripiprazole, 0.6 mL of the 3 mg/kg aripiprazole stock was diluted in 5.4 mL of 5% Tween-80. For 0.1 mg/kg aripiprazole, 0.2 mL of the 3 mg/kg aripiprazole stock was dissolved in 5.8 mL of 5% Tween-80.
The 1.0 mg/kg xanomeline solution was prepared from 3.05 mg xanomeline dissolved in 10.0 mL of sterile water, giving a concentration of 0.2 mg/mL. At a dosing volume of 10 mL/kg, this equals 1.0 mg/kg. (The drug mass adjustment factor between xanomeline free base and xanomeline tartrate is 1.5262.) The average pH was 4.4.
Dose order was randomly assigned for each mouse. Injection 1 and Injection 2 occurred in sequence, with no gap time. Mice were returned to their home cages for 30 minutes following injection to allow the drugs to take effect before testing began. Mice were injected with vehicle (saline at 10 mL/kg SC and Tween-80 at 5 mL/kg IP) the day before dosing days. Mice were only dosed if their average percent avoidance values for the previous two non-dose days was >85%.
The study then evaluated the effect of blocking muscarinic receptors (via scopolamine) on the activity and efficacy of aripiprazole in the Conditioned Avoidance Response (CAR) assay. The aripiprazole solution was prepared as before. To prepare the 0.3 mg/kg scopolamine solution, 3.397 mg scopolamine was dissolved in 40 mL of saline. The actual drug weight of SCOP in this solution is 2.4 mg (adjusted by a factor 1.41499 for the salt content), giving a concentration of 0.06 mg/mL. At a dosing volume of 5 mL/kg, this equals 0.3 mg/kg. The average pH of this solution was 7.3.

Cc1nc2n(c(=O)c1CCN1CCC(c3noc4cc(F)ccc34)CC1)CCCC2 [Risperidone, risperidone]
Effect on conditioned avoidance responding (dose-response, FIG. 1) (Adult male C57BL/6J mice): dose-dependently reduced conditioned avoidance responding
Average avoidance response percentages, R alone (Adult male C57BL/6J mice; risperidone 0.03 mg/kg alone): 5%
Average avoidance response percentages, R alone (Adult male C57BL/6J mice; risperidone 0.1 mg/kg alone): 26%
Average avoidance response percentages, R alone (Adult male C57BL/6J mice; risperidone 0.3 mg/kg alone): 85%
Avoidance responding versus vehicle-vehicle control, drug alone (Adult male C57BL/6J mice): did not significantly differ from vehicle-vehicle control conditions
Activity alone against MK-801 stimulated activity ([1]; risperidone 0.001 mg/kg alone): Inactive

CCCCCCOc1nsnc1C1=CCCN(C)C1 [Xanomeline, xanomeline]
Effect on conditioned avoidance responding (dose-response, FIG. 1) (Adult male C57BL/6J mice): dose-dependently reduced conditioned avoidance responding
Average avoidance response percentages, X alone (Adult male C57BL/6J mice; xanomeline 1 mg/kg alone, aripiprazole combination study (co-formulation, single SC injection), N=16): 5%
Average avoidance response percentages, X alone (Adult male C57BL/6J mice; xanomeline 1 mg/kg alone, risperidone combination study, N=17): 7%
Average avoidance response percentages, X alone (Adult male C57BL/6J mice; xanomeline 3 mg/kg alone, aripiprazole combination study): 20%
Xanomeline plasma exposure across the increasing doses of risperidone ([2]; co-dosed with risperidone): no significant increase
Brain level of the named substance ([2]; treatment: MK-801 0.3 + risperidone 0.001 + xanomeline 1 mg/kg): 143.4 ± 4.8 ng/g
Brain level of the named substance ([2]; treatment: MK-801 0.3 + risperidone 0.003 + xanomeline 1 mg/kg): 154.6 ± 9.3 ng/g
Brain level of the named substance ([2]; treatment: MK-801 0.3 + risperidone 0.01 + xanomeline 1 mg/kg, * p<0.05 vs xanomeline alone): 184.9 ± 15.5* ng/g
Brain level of the named substance ([2]; treatment: MK-801 0.3 + xanomeline 1 mg/kg): 126.0 ± 6.6 ng/g
Activity in the CAR assay (percentage avoidance responses and latency to respond) (male C57BL/6J mice; 1 mg/kg dose alone): inactive in the CAR assay
Average avoidance response percentages, X alone (male C57BL/6J mice; xanomeline 1 mg/kg SC alone, Example 2, N=16): 6%
Activity alone against MK-801 stimulated activity ([1]; xanomeline 1 mg/kg alone): Inactive

CN1[C@@H]2C[C@@H](OC(=O)[C@H](CO)c3ccccc3)C[C@H]1[C@@H]1O[C@@H]12 [scopolamine]
Blockade of the activity of xanomeline in CAR (Adult male C57BL/6J mice; SCOP 0.03 mg/kg): partially blocks
Blockade of the activity of xanomeline in CAR (Adult male C57BL/6J mice; SCOP 0.1 mg/kg): fully
Activity alone in CAR (Adult male C57BL/6J mice; SCOP 0.3 mg/kg): has no activity alone in CAR
Blockade of xanomeline's effects in CAR by muscarinic antagonist (Adult male C57BL/6J mice): dose-dependently blocked xanomeline's effects
Reversal of xanomeline activity in CAR (Adult male C57BL/6J mice; scopolamine 0.3 mg/kg): fully reversed xanomeline activity
Effect on risperidone's antipsychotic-like effect in CAR (Adult male C57BL/6J mice; scopolamine 0.3 mg/kg, FIG. 12, N=16): failed to attenuate
Effect of scopolamine on the activity of aripiprazole in CAR (male C57BL/6J mice; 0.3 mg/kg scopolamine SC 15 minutes before 3.0 mg/kg aripiprazole): slight, but statistically significant effect in reducing the activity of aripiprazole

C[N+]1(C)[C@@H]2C[C@@H](OC(=O)[C@H](CO)c3ccccc3)C[C@H]1[C@@H]1O[C@@H]12 [N-methyl-scopolamine, N-methylscopolamine]
Blockade of the activity of xanomeline in CAR (Adult male C57BL/6J mice; 100-fold higher dose of N-methyl-scopolamine): failed to block the activity of xanomeline
Blockade of xanomeline's effects in CAR by muscarinic antagonist (Adult male C57BL/6J mice): had no effect

O=C1CCc2ccc(OCCCCN3CCN(c4cccc(Cl)c4Cl)CC3)cc2N1 [Aripiprazole, aripiprazole]
Average avoidance response percentages, A alone (Adult male C57BL/6J mice; aripiprazole 1 mg/kg alone): 2%
Average avoidance response percentages, A alone (Adult male C57BL/6J mice; aripiprazole 3 mg/kg alone): 6%
Effect on conditioned avoidance responding (dose-response, FIG. 1) (Adult male C57BL/6J mice): dose-dependently reduced conditioned avoidance responding
Avoidance responding versus vehicle-vehicle control, drug alone (Adult male C57BL/6J mice): did not significantly differ from vehicle-vehicle control conditions
Average avoidance response percentages, A alone (male C57BL/6J mice; aripiprazole 0.1 mg/kg IP alone): 14%
Average avoidance response percentages, A alone (male C57BL/6J mice; aripiprazole 0.3 mg/kg IP alone): 31%
Effects on CAR activity endpoints (male C57BL/6J mice; aripiprazole 3 mg/kg IP, FIG. 18, N=15): robust effects on CAR activity endpoints
Escape failures (male C57BL/6J mice; aripiprazole 0.1, 0.3 mg/kg with or without xanomeline 1 mg/kg): No dose of aripiprazole or combination dose with xanomeline resulted in escape failures
Disruption of CAR performance (dose response) (male C57BL/6J mice; aripiprazole 0.3, 1, 3 and 10 mg/kg, data not shown): effective at disrupting CAR performance in a dose-related manner
Escape failures (male C57BL/6J mice; aripiprazole dose response study, 0.3-10 mg/kg): not evident at any doses
ED50 in CAR (male C57BL/6J mice; aripiprazole dose response study, Example 2 formulation): ~0.3 mg/kg
